Assay results taken from patent US20190054103A1, “METHOD OF TREATMENT OF TP53 WILD-TYPE TUMORS WITH 2',2'-DIFLUORO-5-AZA-2'-DEOXYCYTIDINE OR PRODRUGS THEREOF” (priority 2016, published 2019).

What was measured:
DU-145 = assay: NCI 60 Cell Line Panel growth inhibition; type: cell-based, human; conditions: DU-145, Prostate cancer, TP53 null/mutant
Excerpt: (§1) The NCI-60 Cell Line Panel was assembled by the National Cancer Institute as an in vitro anticancer drug screen. The panel comprises human cancer cell lines representing nine different tissues of origin: breast, colon, central nervous system, renal, lung, melanoma, ovarian, prostate, and hematogenous. […] See, e.g., Leroy et al. “Analysis of TP53 Mutation Status in Human Cancer Cell Lines: a Reassesment” Hum Mutat 2014 35(6): 756-765.

HCT-116 = assay: NCI 60 Cell Line Panel growth inhibition; type: cell-based, human; conditions: HCT-116, Colon cancer, TP53 wild type
Excerpt: as §1

HOP-92 = assay: NCI 60 Cell Line Panel growth inhibition; type: cell-based, human; conditions: HOP-92, Lung-NSCL, TP53 null/mutant
Excerpt: as §1

HT29 = assay: NCI 60 Cell Line Panel growth inhibition; type: cell-based, human; conditions: HT29, Colon cancer, TP53 null/mutant
Excerpt: as §1

IGROV-1 = assay: NCI 60 Cell Line Panel growth inhibition; type: cell-based, human; conditions: IGROV-1, Ovarian cancer, TP53 null/mutant
Excerpt: as §1

LOX IMVI = assay: NCI 60 Cell Line Panel growth inhibition; type: cell-based, human; conditions: Melanoma, TP53 wild type
Excerpt: as §1

MALME-3M = assay: NCI 60 Cell Line Panel growth inhibition; type: cell-based, human; conditions: Melanoma, TP53 wild type
Excerpt: as §1

MOLT-4 = assay: NCI 60 Cell Line Panel growth inhibition; type: cell-based, human; conditions: MOLT-4, Leukemia, TP53 null/mutant
Excerpt: as §1

NCI-H226 = assay: NCI 60 Cell Line Panel growth inhibition; type: cell-based, human; conditions: NCI-H226, Lung-NSCL, TP53 null/mutant
Excerpt: as §1

NCI-H23 = assay: NCI 60 Cell Line Panel growth inhibition; type: cell-based, human; conditions: NCI-H23, Lung-NSCL, TP53 null/mutant
Excerpt: as §1

NCI-H322M = assay: NCI 60 Cell Line Panel growth inhibition; type: cell-based, human; conditions: Lung-NSCL, TP53 null/mutant
Excerpt: as §1

NCI-H460 = assay: NCI 60 Cell Line Panel growth inhibition; type: cell-based, human; conditions: NCI-H460, Lung-NSCL, TP53 wild type
Excerpt: as §1

NCI-H522 = assay: NCI 60 Cell Line Panel growth inhibition; type: cell-based, human; conditions: NCI-H522, Lung-NSCL, TP53 null/mutant
Excerpt: as §1

OVCAR-3 = assay: NCI 60 Cell Line Panel growth inhibition; type: cell-based, human; conditions: OVCAR-3, Ovarian cancer, TP53 null/mutant
Excerpt: as §1

OVCAR-5 = assay: NCI 60 Cell Line Panel growth inhibition; type: cell-based, human; conditions: OVCAR-5, Ovarian cancer, TP53 wild type
Excerpt: as §1

OVCAR-8 = assay: NCI 60 Cell Line Panel growth inhibition; type: cell-based, human; conditions: OVCAR-8, Ovarian cancer, TP53 null/mutant
Excerpt: as §1

SF-268 = assay: NCI 60 Cell Line Panel growth inhibition; type: cell-based, human; conditions: SF-268, CNS cancer, TP53 null/mutant
Excerpt: as §1

SF-295 = assay: NCI 60 Cell Line Panel growth inhibition; type: cell-based, human; conditions: SF-295, CNS cancer, TP53 null/mutant
Excerpt: as §1

SK-MEL-5 = assay: NCI 60 Cell Line Panel growth inhibition; type: cell-based, human; conditions: SK-MEL-5, Melanoma, TP53 wild type
Excerpt: as §1

SW-620 = assay: NCI 60 Cell Line Panel growth inhibition; type: cell-based, human; conditions: SW-620, Colon cancer, TP53 null/mutant
Excerpt: as §1

TK-10 = assay: NCI 60 Cell Line Panel growth inhibition; type: cell-based, human; conditions: TK-10, Renal cancer, TP53 null/mutant
Excerpt: as §1

UACC-257 = assay: NCI 60 Cell Line Panel growth inhibition; type: cell-based, human; conditions: UACC-257, Melanoma, TP53 wild type
Excerpt: as §1

UACC-62 = assay: NCI 60 Cell Line Panel growth inhibition; type: cell-based, human; conditions: UACC-62, Melanoma, TP53 wild type
Excerpt: as §1

UO-31 = assay: NCI 60 Cell Line Panel growth inhibition; type: cell-based, human; conditions: UO-31, Renal cancer, TP53 wild type
Excerpt: as §1

[1] = NUC013 administered IV to mice
in vivo = conditions: nude, mouse, iv
[2] = Pharmacokinetics after SC administration of NUC041 in phospholipid gel depot to mice; conditions: analyte in plasma following SC administration of NUC041 (100 mg/kg) to mice

With `Nc1ncn([C@@H]2O[C@H](CO)[C@@H](O)C2(F)F)c(=O)n1` [NUC013, 4-amino-1-((2R,4R,5R)-3,3-difluoro-4-hydroxy-5-(hydroxymethyl)tetrahydrofuran-2-yl)-1,3,5-triazin-2(1H)-one] the “Growth (%) at 10 μM” value (DU-145) was 43.48%, the “Growth (%) at 10 μM” value (HCT-116) was 29.84% and the “Growth (%) at 10 μM” value (HOP-92) was 34.34%. For the same molecule, the “Growth (%) at 10 μM” value (HT29) was 70.09%, the “Growth (%) at 10 μM” value (IGROV-1) was 56.77% and the “Growth (%) at 10 μM” value (LOX IMVI) was 34.53%. The “Growth (%) at 10 μM” value (MALME-3M) was 67.90%, the “Growth (%) at 10 μM” value (MOLT-4) was 35.63% and the “Growth (%) at 10 μM” value (NCI-H226) was 52.34%. For the same molecule, the “Growth (%) at 10 μM” value (NCI-H23) was 30.61%, the “Growth (%) at 10 μM” value (NCI-H322M) was 70.00% and the “Growth (%) at 10 μM” value (NCI-H460) was 9.34%. The “Growth (%) at 10 μM” value (NCI-H522) was 86.91%, the “Growth (%) at 10 μM” value (OVCAR-3) was 70.56% and the “Growth (%) at 10 μM” value (OVCAR-5) was 86.95%. The “Growth (%) at 10 μM” value (OVCAR-8) was 49.95%, the “Growth (%) at 10 μM” value (SF-268) was 65.39% and the “Growth (%) at 10 μM” value (SF-295) was 77.93%. For the same molecule, the “Growth (%) at 10 μM” value (SK-MEL-5) was 70.84%, the “Growth (%) at 10 μM” value (SW-620) was 51.21% and the “Growth (%) at 10 μM” value (TK-10) was 91.13%. The “Growth (%) at 10 μM” value (UACC-257) was 77.54%, the “Growth (%) at 10 μM” value (UACC-62) was 47.29% and the “Growth (%) at 10 μM” value (UO-31) was 39.00%. The half-life [1] was 20 min, the MTD at 3 weeks (in vivo) was over 120 mg/kg and the “AUClast (area under the plasma concentration versus time curve from 0 to last quantifiable sampling time)” value [2] was 1939 ng·h/mL.
